Laboratory results reported in patent US5854280A, “Antifungal sordaridin derivatives” (Glaxo Wellcome S.A., priority 1994, dated 1998).
Converted amounts (≈) assume the structure as drawn.

Experiments:
Experiment in all cases: in vitro antifungal MIC, two-fold serial dilution
C. aibicans 2402E = type: cell-based, Candida albicans
Procedure: (§1) The in vitro evaluation of the anti-fungal activity of compounds of the invention was performed on liquid or solid medium by the anti-fungal two-fold serial dilution technique of determining the minimum inhibitory concentration (MIC) of anti-fungal agent that inhibited development of growth after 24 to 48 hours of incubation at 37° C. In practice, a series of agar plates or broth microdilution panels containing two-fold dilutions of anti-fungal agent tested were inoculated with a standard culture of a clinically relevant pathogen, for example, Candida albicans. The agar plates or broth microdulution panels were then examined for the presence or absence of growth of the fungus and the appropriate MIC values were noted.
(§2) Compounds of formula (I) have been tested for anti fungal activity in a standard in vitro screen and the minimum inhibiting concentration (MIC; μg/ml) determined for each compound against a variety of clinically relevant pathogens.

C. albicans 1208E = type: cell-based, Candida albicans
Procedure: as §1, §2

C. albicans 2005E = type: cell-based, Candida albicans
Procedure: as §1, §2

C. albicans 4711 = type: cell-based, Candida albicans
Procedure: as §1, §2

C. tropicalis 2808E = type: cell-based, Candida tropicalis
Procedure: as §1, §2

[1] = test system: C. psuedotropicalis 2371E; type: cell-based, Candida pseudotropicalis
Procedure: as §1, §2

C. glabrata 2375E = type: cell-based, Candida glabrata
Procedure: as §1, §2

C. glabrata 2376E = type: cell-based, Candida glabrata
Procedure: as §1, §2

C. neoformans 2867E = type: cell-based, Cryptococcus neoformans
Procedure: as §1, §2

SMILES | MIC (minimum inhibiting concentration) (C. aibicans 2402E) [µg/mL] | MIC (minimum inhibiting concentration) (C. albicans 1208E) [µg/mL] | MIC (minimum inhibiting concentration) (C. albicans 2005E) [µg/mL] | MIC (minimum inhibiting concentration) (C. albicans 4711) [µg/mL] | MIC (minimum inhibiting concentration) (C. tropicalis 2808E) [µg/mL] | MIC (minimum inhibiting concentration) [1] [µg/mL] | MIC (minimum inhibiting concentration) (C. glabrata 2375E) [µg/mL] | MIC (minimum inhibiting concentration) (C. glabrata 2376E) [µg/mL] | MIC (minimum inhibiting concentration) (C. neoformans 2867E) [µg/mL]
CC(C)C(=O)OC1C(C)OC(OCC23CC4C(C)CCC4C4(C=O)CC2C=C(C(C)C)C43C(=O)O)C2OC12 [Example 59, [1R-(1α,3aβ,4β,4aβ,7β,7aα,8aβ)]8a-[(2,3-Anhydro-6-deoxy-4-O-(1-methylethyl)carbonyl-β-D-mannopyranosyloxy)methyl]-4-formyl-4,4a,5,6,7,7a,8,8a-octahydro-7-methyl-3-(1-methylethyl)-1,4-methano-s-indacene-3a(1H)-carboxylic acid] | 0.008 (≈ 0.0151 µM) | 0.015 (≈ 0.0283 µM) | ≤ 0.001 | 0.002 (≈ 0.00377 µM) | 0.015 (≈ 0.0283 µM) | 0.015 (≈ 0.0283 µM) | 16.0 (≈ 30.2 µM) | 16.0 (≈ 30.2 µM) | 1.00 (≈ 1.88 µM)
CC(C)C1=CC2CC3(C=O)C4CCC(C)C4CC2(COC2OC(C)C4OC(C)(C)OC4C2O)C13C(=O)O [Example 1, [1R-(1α,3aβ,4β,4aβ,7β,7aα,8aβ)]8a-[(6-Deoxy-3,4-O-isopropylidene-β-D-altropyranosyloxy)methyl]-4-formyl-4,4a,5,6,7,7a,8,8a-octahydro-7-methyl-3-(1-methylethyl)-1,4-methano-s-indacene-3a(1H)-carboxylic acid] | 0.500 (≈ 0.964 µM) | 0.500 (≈ 0.964 µM) | 0.120 (≈ 0.231 µM) | 0.280 (≈ 0.54 µM) | 1.000 (≈ 1.93 µM) | 0.060 (≈ 0.116 µM) | 31.00 (≈ 59.8 µM) | 31.00 (≈ 59.8 µM) | > 125
CC(C)C1=CC2CC3(C=O)C4CCC(C)C4CC2(COC2CC4OC(C)(C)OC4C(C)O2)C13C(=O)O [Example 6, [1R-(1α,3aβ,4β,4aβ,7β,7aα,8aβ)]8a-[(2,6-Dideoxy-3,4-O-isopropylidene-β-D-allopyranosyloxy)methyl]-4-formyl-4,4a,5,6,7,7a,8,8a-octahydro-7-methyl-3-(1-methylethyl)-4-methano-s-indacene-3a(1H)-carboxylic acid] | 0.008 (≈ 0.0159 µM) | 0.008 (≈ 0.0159 µM) | 0.001 (≈ 0.00199 µM) | 0.004 (≈ 0.00796 µM) | 0.120 (≈ 0.239 µM) | 0.004 (≈ 0.00796 µM) | 31.00 (≈ 61.7 µM) | 31.00 (≈ 61.7 µM) | 8.00 (≈ 15.9 µM)
CCCOC1C(C)OC(OCC23CC4C(C)CCC4C4(C=O)CC2C=C(C(C)C)C43C(=O)O)C2OC12 [Example 52, [1R-(1α,3aβ,4β,4aβ,7β,7aα,8aβ)]8a-[(2,3-Anhydro-6-deoxy-4-O-propyl-β-D-mannopyranosyloxy)methyl]-4-formyl-4,4a,5,6,7,7a,8,8a-octahydro-7-methyl-3-(1-methylethyl)-1,4-methano-s-indacene-3a(1H)-carboxylic acid] | 0.008 (≈ 0.0159 µM) | 0.004 (≈ 0.00796 µM) | 0.001 (≈ 0.00199 µM) | 0.004 (≈ 0.00796 µM) | 0.030 (≈ 0.0597 µM) | 0.001 (≈ 0.00199 µM) | 8.00 (≈ 15.9 µM) | 8.00 (≈ 15.9 µM) | 1.00 (≈ 1.99 µM)
CC(C)C1=CC2CC3(C=O)C4CCC(C)C4CC2(COC2OC(C)C(OCc4ccccc4)C4OC24)C13C(=O)O [Example 54, [1R-(1α,3aβ,4β,4aβ,7β,7aα,8aβ)]8a-[(2,3-Anhydro-4-O-benzyl-6-deoxy-β-D-mannopyranosyloxy)methyl]-4-formyl-4,4a,5,6,7,7a,8,8a-octahydro-7-methyl-3-(1-methylethyl)-1,4-methano-s-indacene-3a(1H)-carboxylic acid] | ≤ 0.001 | ≤ 0.001 | ≤ 0.001 | ≤ 0.001 | ≤ 0.001 | 0.01 (≈ 0.0182 µM) | 8.00 (≈ 14.5 µM) | 8.00 (≈ 14.5 µM) | 2.00 (≈ 3.63 µM)
COC1C(C)OC(OCC23CC4C(C)CCC4C4(C=O)CC2C=C(C(C)C)C43C(=O)O)C2SC12 [Example 51, [1R-(1α,3aβ,4β,4aβ,7β,7aα,8aβ)]8a-[(2,3-Epithio-4-O-methyl-2,3,6-trideoxy-β-D-mannopyranosyloxy)methyl]-4-formyl-4,4a,5,6,7,7a,8,8a-octahydro-7-methyl-3-(1-methylethyl)-1,4-methano-s-indacene-3a(1H)-carboxylic acid] | 0.120 (≈ 0.245 µM) | 0.120 (≈ 0.245 µM) | 0.030 (≈ 0.0611 µM) | 0.120 (≈ 0.245 µM) | 0.500 (≈ 1.02 µM) | 0.008 (≈ 0.0163 µM) | 16.00 (≈ 32.6 µM) | 16.00 (≈ 32.6 µM) | ≤ 125

The next lines start with the values.

MIC (minimum inhibiting concentration) (C. aibicans 2402E) [µg/mL] | MIC (minimum inhibiting concentration) (C. albicans 1208E) [µg/mL] | MIC (minimum inhibiting concentration) (C. albicans 2005E) [µg/mL] | MIC (minimum inhibiting concentration) (C. albicans 4711) [µg/mL] | MIC (minimum inhibiting concentration) (C. tropicalis 2808E) [µg/mL] | MIC (minimum inhibiting concentration) [1] [µg/mL] | MIC (minimum inhibiting concentration) (C. glabrata 2375E) [µg/mL] | MIC (minimum inhibiting concentration) (C. glabrata 2376E) [µg/mL] | MIC (minimum inhibiting concentration) (C. neoformans 2867E) [µg/mL] | SMILES
0.015 | 0.015 | 0.008 | 0.015 | 0.120 | 0.008 | 8.00 | 8.00 | 0.500 | CC(C)C1=CC2CC3(C=O)C4CCC(C)C4CC2(COC2CC4OCOC4C(C)O2)C13C(=O)[O-].[Na+] (stereo not drawn) [Example 13]
0.001 | 0.001 | 0.001 | 0.001 | 0.150 | ≤ 0.001 | 1.000 | 1.000 | ≤ 0.250 | C=C1COC2C(C)OC(OCC34CC5C(C)CCC5C5(C=O)CC3C=C(C(C)C)C54C(=O)[O-])CC12.[Na+] [Example 34, [1R-(1α,3aβ,4β,4aβ,7β,7aα,8aβ)]8a-[[1S,7R,9R]-2,8-Dioxa-9-methyl-4-methylene-cis-bicyclo[3.4.0]-non-7-yl-oxy-methyl]-4-formyl-4,4a, 5,6,7,7a,8,8a-octahydro-7-methyl-3-(1-methylethyl)-1,4-methano-s-indacene-3a(1H)-carboxylic acid, sodium salt]
0.001 (≈ 0.00205 µM) | 0.001 (≈ 0.00205 µM) | 0.001 (≈ 0.00205 µM) | 0.001 (≈ 0.00205 µM) | 0.008 (≈ 0.0164 µM) | < 0.001 | 8.00 (≈ 16.4 µM) | 8.00 (≈ 16.4 µM) | 1.00 (≈ 2.05 µM) | CC(C)C1=CC2CC3(C=O)C4CCC(C)C4CC2(COC2CC4OCC(C)C4C(C)O2)C13C(=O)O [Example 16, [1R-(1α,3aβ,4β,4aβ,7β,7aα,8aβ)]8a-[[1S,4S,6R,8R]-2,7-Dioxa-4,6-dimethyl-cis-bicyclo[3.4.0]-non-8-yl-oxy-methyl]-4-formyl-4,4a,5,6,7,7a,8,8a-octahydro-7-methyl-3-(1-methylethyl)-1,4-methano-s-indacene-3a(1H)-carboxylic acid]
0.001 (≈ 0.00212 µM) | 0.001 (≈ 0.00212 µM) | 0.001 (≈ 0.00212 µM) | 0.001 (≈ 0.00212 µM) | 0.500 (≈ 1.06 µM) | < 0.001 | 4.00 (≈ 8.5 µM) | 4.00 (≈ 8.5 µM) | 2.00 (≈ 4.25 µM) | CC(C)C1=CC2CC3(C=O)C4CCC(C)C4CC2(COC2CC4=CCOC4C(C)O2)C13C(=O)O [Example 43, [1R-(1α,3aβ,4β,4aβ,7β,7aα,8aβ)]8a-[(1S,7R,9R)-2,8-Dioxa-9-methyl-bicyclo[3,4,0]-non-4-ene-7-yl-oxymethyl]-4-formyl-4,4a,5,6,7,7a,8,8a-octahydro-7-methyl-3-(1-methylethyl)-1,4-methano-s-indacene-3a(1H)-carboxylic acid]
